Measured values as given in patent US8822432B2, “Equol production accelerating composition” (Unitika Ltd., priority 2006, dated 2014).

Tested on: equol production in the intestines
Assay: Equol production accelerating effect in rats: equol concentration in blood plasma after 5 weeks of sample-mixed feed
Type: in vivo, SD rats
Conditions: week 5
Excerpt: Calcium lactobionate (manufactured by Sigma Aldrich) was mixed with a rat powder feed (CRF-1, manufactured by Oriental Yeast Co., Ltd.) to a concentration of 0, 0.5 or 3.0% by weight. Also, as comparative controls, a 1.5% by weight difructose-dianhydride III (DFA-III) (manufactured by Wako Pure Chemical Industries, Ltd)-mixed powder feed and a 1.5% by weight fructo-oligosaccharide (FOS) (manufactured by Wako Pure Chemical Industries, Ltd)-mixed powder feed were used.
Acclimatization rearing of 3 animals per group of 5-week-old SD rats (manufactured by Clea Japan, Inc.) was carried out for 1 week by allowing to freely ingest the powder feed CRF-1 and water. The time of completion of the acclimatization rearing was regarded as the […] Starting from the week 0, respective groups were allowed to freely ingest the calcium lactobionate-mixed powder feed prepared in the above. The control groups were allowed to ingest a general powder feed.
The conjugated soybean isoflavone presenting in the rat blood plasma was converted into its free state using β-glucuronidase, and then equol was measured using an LC/MS/MS system. As the instruments for analysis, HP1100 Series, Agilent Technologies, was used in the LC, and Quattro-Ultima, Micromass was used in the MS/MS. […]

O=C([O-])[C@H](O)[C@@H](O)[C@H](O[C@@H]1O[C@H](CO)[C@H](O)[C@H](O)[C@H]1O)[C@H](O)CO.O=C([O-])[C@H](O)[C@@H](O)[C@H](O[C@@H]1O[C@H](CO)[C@H](O)[C@H](O)[C@H]1O)[C@H](O)CO.[Ca+2] [calcium lactobionate, Calcium lactobionate]
equol concentration in blood plasma, times of the control group (calcium lactobionate-mixed powder feed (0.5 or 3.0% by weight), free ingestion): 2 to 3 times of the control group | equol concentration in blood plasma compared to the DFA-III and fructo-oligosaccharide (mixed powder feed): high
